Experimental data reported in publication PMC3933301 (Journal of medicinal chemistry, 2013).
Converted amounts (≈) assume the structure as drawn. “Also recorded” adds a separate entry of the source. Read-outs that look alike come from different tables or passages of the source.

Assays:
Mtb FtsZ [1] = biological target: T1, Mtb FtsZ (Mycobacterium tuberculosis, UniProt P9WN95); assay: Mtb-FtsZ polymerization inhibitory assay; type: biochemical; settings: FtsZ 15 µM, GTP 50 µM, 25 °C
Mtb [2] = settings: cited from earlier work
non-replicating Mtb = settings: grown under low oxygen conditions; cited from earlier work
Mtb H37Rv [3] = assay: Microplate Alamar Blue Assay; type: cell-based, Mycobacterium tuberculosis
Mtb H37Rv [4] = settings: early leads of previous study, Figure 1; cited from earlier work
Mtb [5] = settings: standard acute infection model, immune incompetent GKO mice; cited from earlier work
Cytotoxicity assay = type: cell-based; settings: Cercopithecus aethiops (African green monkey)
Mtb FtsZ [6] = biological target: T1, Mtb FtsZ; type: biochemical; settings: for TEM: effect on GTP-initiated FtsZ polymerization: FtsZ 5 µM, GTP 25 µM

T1 sequence (P9WN95 whole entry): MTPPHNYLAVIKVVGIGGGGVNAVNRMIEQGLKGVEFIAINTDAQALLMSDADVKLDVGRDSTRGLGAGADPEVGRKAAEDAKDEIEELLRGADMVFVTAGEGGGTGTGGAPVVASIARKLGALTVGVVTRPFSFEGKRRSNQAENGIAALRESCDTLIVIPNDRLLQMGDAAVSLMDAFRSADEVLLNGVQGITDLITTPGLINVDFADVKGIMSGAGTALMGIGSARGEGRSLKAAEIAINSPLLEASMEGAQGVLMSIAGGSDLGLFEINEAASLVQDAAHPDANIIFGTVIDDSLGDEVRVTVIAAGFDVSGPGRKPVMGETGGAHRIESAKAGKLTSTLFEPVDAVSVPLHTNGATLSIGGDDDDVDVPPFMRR

Structure (SMILES): CCc1ccc(C(=O)Nc2cc3nc(C4CCCCC4)[nH]c3cc2N(C)C)cc1 [Compound 7c-6, 2-Cyclohexyl-5-(4-ethylbenzamido)-6-N,N-dimethylamino-1H-benzo[d]imidazole]
- Inhibition of Mtb FtsZ polymerization (light scattering) (Mtb FtsZ [1]): inhibit the assembly of Mtb FtsZ in a dose dependent manner; also recorded: effective dose-dependent inhibition

Structure (SMILES): CCCCOC(=O)Nc1cc2nc(C3CCCCC3)[nH]c2cc1N1CCCC1 [Compound 2]
- Bactericidal activity (Mtb [2]): bactericidal
- Activity against non-replicating Mtb (non-replicating Mtb): active

Structure (SMILES): CCCCOC(=O)Nc1cc2nc(C3CCCCC3)[nH]c2cc1N(CC)CC [Compound 1]
- MIC (Mtb H37Rv [3]; Mycobacterium tuberculosis, H37RV, read-out: Mtb H37Rv MIC): 0.63 µg/mL (≈ 1.63 µM)
- MIC of early lead compounds (Mtb H37Rv [4]): 0.63 µg/mL
- Bactericidal activity (Mtb [2]): bactericidal
- Activity against non-replicating Mtb (non-replicating Mtb): active
- Efficacy in vivo (Mtb [5]): good efficacy

Structure (SMILES): O=C(Nc1cc2nc(C3CCCCC3)[nH]c2cc1N1CCCC1)OCC(F)(F)F [Compound 5o, 2-Cyclohexyl-5-trifluoroethoxycarbonylamino-6-prrolidinyl-1H-benzo[d]imidazole]
- IC50 (Cytotoxicity assay): > 100 µg/mL

Structure (SMILES): CCCCOC(=O)Nc1cc2nc(C3CCCCC3)[nH]c2cc1N(C)C [Compound 5f, 5-Butyloxycarbonylamino-2-cyclohexyl-6-N,N-dimethylamino-1H-benzo[d]imidazole]
- Potency relative to 1 (Mtb H37Rv MIC) (Mtb H37Rv [3]): 11 times
- Inhibition of Mtb FtsZ polymerization (light scattering) (Mtb FtsZ [1]): inhibit the assembly of Mtb FtsZ in a dose dependent manner; also recorded: effective dose-dependent inhibition
- TEM: effect on preformed FtsZ polymers (Mtb FtsZ [6]; 5f 40 µM or 80 µM added after polymerization with GTP 25 µM): capable of disrupting the formed FtsZ polymers and aggregates; also recorded: effectively disassembled
- TEM: effect on GTP-initiated FtsZ polymerization (Mtb FtsZ [6]; 5f 40 µM): reduction in the density and population of FtsZ polymers, protofilaments and aggregates
- TEM: effect on GTP-initiated FtsZ polymerization (Mtb FtsZ [6]; 5f 80 µM): more apparent

Structure (SMILES): CN(C)c1cc2[nH]c(C3CCCCC3)nc2cc1NC(=O)OCC(F)(F)F [Compound 5p, 2-Cyclohexyl-5-trifluoroethoxycarbonylamino-6-N,N-dimethylamino-1H-benzo[d]imidazole]
- IC50 (Cytotoxicity assay): > 100 µg/mL
- Inhibition of Mtb FtsZ polymerization (light scattering) (Mtb FtsZ [1]): inhibit the assembly of Mtb FtsZ in a dose dependent manner; also recorded: effective dose-dependent inhibition

Structure (SMILES): CCN(CC)c1cc2[nH]c(C3CCCCC3)nc2cc1NC(=O)OCC(F)(F)F [Compound 5n, 2-Cyclohexyl-6-N,N-diethylamino-5-trifluoroethoxycarbonylamino-1H-benzo[d]imidazole]
- IC50 (Cytotoxicity assay): > 100 µg/mL
